Test results published in patent US6737383B1, “Herbicidal oxadiazolidines” (priority 1999, dated 2004).

Tests used:
bedstraw = assay: Test B pre/postemergence bedstraw; assay type: in vivo, Galium aparine; details: Preemergence; for Bedstraw plant response rating: scale 0 to 10, 0 is no effect, 10 is complete control
Summary of the method: (§1)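 Response is a visual 0-to-10 score relative to untreated plants, where 0 means no effect and 10 means complete control, taken twelve to sixteen days after application. Treatments went onto soil at planting and onto foliage of 1- to 4-leaf plants, using a surfactant-containing non-phytotoxic solvent.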

blackgrass = assay: Test B pre/postemergence blackgrass; assay type: in vivo, Alopecurus myosuroides
Summary of the method: as §1

surinam grass = assay: Test B pre/postemergence surinam grass; assay type: in vivo, Brachiaria decumbens
Summary of the method: as §1

cocklebur = assay: Test B pre/postemergence cocklebur; assay type: in vivo, Xanthium strumarium
Summary of the method: as §1

corn = assay: Test B pre/postemergence corn; assay type: in vivo, Zea mays
Summary of the method: as §1

crabgrass = assay: Test B pre/postemergence crabgrass; assay type: in vivo, Digitaria sanguinalis
Summary of the method: as §1

giant foxtail = assay: Test B pre/postemergence giant foxtail; assay type: in vivo, Setaria faberii
Summary of the method: as §1

morningglory = assay: Test B pre/postemergence morningglory; assay type: in vivo, Ipomoea hederacea
Summary of the method: as §1

pigweed = assay: Test B pre/postemergence pigweed; assay type: in vivo, Amaranthus retroflexus
Summary of the method: as §1

rape = assay: Test B pre/postemergence rape; assay type: in vivo, Brassica napus
Summary of the method: as §1

soybean = assay: Test B pre/postemergence soybean; assay type: in vivo, Glycine max
Summary of the method: as §1

sugar beet = assay: Test B pre/postemergence sugar beet; assay type: in vivo, Beta vulgaris
Summary of the method: as §1

velvetleaf = assay: Test B pre/postemergence velvetleaf; assay type: in vivo, Abutilon theophrasti
Summary of the method: as §1

wheat = assay: Test B pre/postemergence wheat; assay type: in vivo, Triticum aestivum
Summary of the method: as §1

wild oat = assay: Test B pre/postemergence wild oat; assay type: in vivo, Avena fatua
Summary of the method: as §1

purple nutsedge = assay: Test B pre/postemergence purple nutsedge; assay type: in vivo, Cyperus rotundus
Summary of the method: as §1

rice = assay: Test B flood test rice; assay type: in vivo, Oryza sativa
Summary of the method: (§2)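 Flood test on plants grown to the 2-leaf stage; treated plants kept in greenhouse twelve to sixteen days, then visually rated against controls on a 0 (no effect) to 10 (complete control) scale.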

smallflower flatsedge = assay: Test B flood test smallflower flatsedge; assay type: in vivo, Cyperus difformis
Summary of the method: as §2

duck salad = assay: Test B flood test duck salad; assay type: in vivo, Heteranthera limosa
Summary of the method: as §2

bamyardgrass = assay: Test B flood test barnyardgrass; assay type: in vivo, Echinochloa crus-galli
Summary of the method: as §2

[1] = Postemergence, Rate 125 g/ha, scale 0 to 10, 0 is no effect, 10 is complete control
[2] = Postemergence, Rate 250 g/ha, scale 0 to 10
[3] = Postemergence, Rate 500 g/ha, scale 0 to 10, 0 is no effect, 10 is complete control
[4] = Preemergence, Rate 62 g/ha, scale of 0 to 10 where 0 is no effect and 10 is complete control
[5] = Preemergence, Rate 125 g/ha, scale 0 to 10, 0 is no effect, 10 is complete control
[6] = Preemergence, Rate 250 g/ha, scale 0 to 10, 0 is no effect, 10 is complete control
[7] = Preemergence, Rate 500 g/ha, scale of 0 to 10 where 0 is no effect and 10 is complete control
[8] = Rate 62 g/ha, Postemergence, scale 0 to 10 (0 no effect, 10 complete control)
[9] = Rate 62 g/ha, flood test species, Pre-emergence, visual evaluation after twelve to sixteen days
[10] = Rate 125 g/ha, under heading Pre-emergence, flood test species, visual evaluation after twelve to sixteen days
[11] = Rate 250 g/ha, Pre-emergence (flood test species), scale 0 to 10, 0 is no effect, 10 is complete control
[12] = Rate 500 g/ha, Pre-emergence section of Table B, 0 to 10 scale (0 no effect, 10 complete control)

In the case of `CC(C)N(C(=O)n1oc(=O)n(CCCNC(=O)CCl)c1=O)c1ccccc1` [Compound 493], the “Plant response rating, Bedstraw” value (bedstraw; Rate 62 g/ha, scale of 0 to 10 where 0 is no effect and 10 is complete control) was 0, the “Bedstraw plant response rating” value (bedstraw; Rate 125 g/ha) was 0 and the “Bedstraw plant response rating” value (bedstraw; Rate 250 g/ha) was 0. The “Bedstraw plant response rating” value (bedstraw; Rate 500 g/ha) was 0, the “Blackgrass plant response rating” value (blackgrass; [1]) was 0 and the “Blackgrass plant response rating” value (blackgrass; [2]) was 0. The “Plant response rating, Blackgrass” value (blackgrass; [3]) was 0, the “Plant response rating, Blackgrass” value (blackgrass; [4]) was 0 and the “Blackgrass plant response rating” value (blackgrass; [5]) was 0. The “Blackgrass plant response rating” value (blackgrass; [6]) was 0, the “Blackgrass plant response rating” value (blackgrass; [7]) was 0 and the “Blackgrass plant response rating” value (blackgrass; [8]) was 0. The “B. signalgrass plant response rating” value (surinam grass; [1]) was 0, the “B. signalgrass plant response rating” value (surinam grass; Postemergence, Rate 250 g/ha, scale 0 to 10, 0 no effect, 10 complete control) was 0 and the “Plant response rating, B. signalgrass” value (surinam grass; [3]) was 0. The “Plant response rating, B. signalgrass” value (surinam grass; [4]) was 0, the “B. signalgrass plant response rating” value (surinam grass; [5]) was 0 and the “B. signalgrass plant response rating” value (surinam grass; [6]) was 0. For the same compound, the “B. signalgrass plant response rating” value (surinam grass; Preemergence, Rate 500 g/ha, scale 0 to 10, 0 is no effect, 10 is complete control) was 0, the “B. signalgrass plant response rating” value (surinam grass; [8]) was 0 and the “Cocklebur plant response rating” value (cocklebur; [1]) was 0. For the same compound, the “Cocklebur plant response rating” value (cocklebur; [2]) was 0, the “Plant response rating, Cocklebur” value (cocklebur; [3]) was 0 and the “Plant response rating, Cocklebur” value (cocklebur; [4]) was 0. For the same compound, the “Cocklebur plant response rating” value (cocklebur; [5]) was 0, the “Cocklebur plant response rating” value (cocklebur; [6]) was 0 and the “Cocklebur plant response rating” value (cocklebur; [7]) was 0. The “Cocklebur plant response rating” value (cocklebur; [8]) was 0, the “Corn plant response rating” value (corn; [1]) was 0 and the “Corn plant response rating” value (corn; [2]) was 0. The “Plant response rating, Corn” value (corn; [3]) was 0, the “Plant response rating, Corn” value (corn; [4]) was 0 and the “Corn plant response rating” value (corn; [5]) was 0. For the same compound, the “Corn plant response rating” value (corn; [7]) was 0, the “Corn plant response rating” value (corn; [8]) was 0 and the “Crabgrass plant response rating” value (crabgrass; [1]) was 0. For the same compound, the “Crabgrass plant response rating” value (crabgrass; [2]) was 0, the “Plant response rating, Crabgrass” value (crabgrass; [3]) was 4 and the “Plant response rating, Crabgrass” value (crabgrass; [4]) was 0. For the same compound, the “Crabgrass plant response rating” value (crabgrass; [5]) was 0, the “Crabgrass plant response rating” value (crabgrass; [7]) was 2 and the “Crabgrass plant response rating” value (crabgrass; [8]) was 0. The “Giant foxtail plant response rating” value (giant foxtail; [1]) was 0, the “Plant response rating, Giant foxtail” value (giant foxtail; [3]) was 0 and the “Plant response rating, Giant foxtail” value (giant foxtail; [4]) was 3. For the same compound, the “Giant foxtail plant response rating” value (giant foxtail; [5]) was 3, the “Giant foxtail plant response rating” value (giant foxtail; [7]) was 10 and the “Giant foxtail plant response rating” value (giant foxtail; [8]) was 0. The “Morningglory plant response rating” value (morningglory; [1]) was 0, the “Plant response rating, Morningglory” value (morningglory; [3]) was 0 and the “Plant response rating, Morningglory” value (morningglory; [4]) was 0. The “Morningglory plant response rating” value (morningglory; [5]) was 0, the “Morningglory plant response rating” value (morningglory; [7]) was 0 and the “Morningglory plant response rating” value (morningglory; [8]) was 0. For the same compound, the “Redroot pigweed plant response rating” value (pigweed; [1]) was 0, the “Plant response rating, Redroot pigweed” value (pigweed; [3]) was 0 and the “Plant response rating, Redroot pigweed” value (pigweed; [4]) was 0. For the same compound, the “Redroot pigweed plant response rating” value (pigweed; [5]) was 0, the “Redroot pigweed plant response rating” value (pigweed; [7]) was 0 and the “Redroot pigweed plant response rating” value (pigweed; [8]) was 0. The “Rape plant response rating” value (rape; [1]) was 0, the “Plant response rating, Rape” value (rape; [3]) was 0 and the “Plant response rating, Rape” value (rape; [4]) was 0. The “Rape plant response rating” value (rape; [5]) was 0, the “Rape plant response rating” value (rape; [7]) was 0 and the “Rape plant response rating” value (rape; [8]) was 0. For the same compound, the “Soybean plant response rating” value (soybean; [1]) was 0, the “Plant response rating, Soybean” value (soybean; [3]) was 2 and the “Plant response rating, Soybean” value (soybean; [4]) was 0. The “Soybean plant response rating” value (soybean; [5]) was 0, the “Soybean plant response rating” value (soybean; [7]) was 0 and the “Sugarbeets plant response rating” value (sugar beet; [1]) was 0. The “Plant response rating, Sugarbeets” value (sugar beet; [3]) was 0, the “Plant response rating, Sugarbeets” value (sugar beet; [4]) was 0 and the “Sugarbeets plant response rating” value (sugar beet; [5]) was 0. For the same compound, the “Sugarbeets plant response rating” value (sugar beet; [7]) was 0, the “Sugarbeets plant response rating” value (sugar beet; [8]) was 0 and the “Velvetleaf plant response rating” value (velvetleaf; [1]) was 0. For the same compound, the “Plant response rating, Velvetleaf” value (velvetleaf; [3]) was 0, the “Plant response rating, Velvetleaf” value (velvetleaf; [4]) was 0 and the “Velvetleaf plant response rating” value (velvetleaf; [5]) was 0. The “Velvetleaf plant response rating” value (velvetleaf; [7]) was 0, the “Velvetleaf plant response rating” value (velvetleaf; [8]) was 0 and the “Wheat plant response rating” value (wheat; [1]) was 0. The “Plant response rating, Wheat” value (wheat; [3]) was 0, the “Plant response rating, Wheat” value (wheat; [4]) was 0 and the “Wheat plant response rating” value (wheat; [5]) was 0. For the same compound, the “Wheat plant response rating” value (wheat; [7]) was 0, the “Wheat plant response rating” value (wheat; [8]) was 0 and the “Wild oats plant response rating” value (wild oat; [1]) was 0. The “Plant response rating, Wild oats” value (wild oat; [3]) was 0, the “Plant response rating, Wild oats” value (wild oat; [4]) was 0 and the “Wild oats plant response rating” value (wild oat; [5]) was 0. For the same compound, the “Wild oats plant response rating” value (wild oat; [7]) was 0, the “Wild oats plant response rating” value (wild oat; [8]) was 0 and the “Nutsedge plant response rating” value (purple nutsedge; [1]) was 0. The “Plant response rating, Nutsedge” value (purple nutsedge; [3]) was 0, the “Nutsedge plant response rating” value (purple nutsedge; [5]) was 0 and the “Nutsedge plant response rating” value (purple nutsedge; [7]) was 0. For the same compound, the “Nutsedge plant response rating” value (purple nutsedge; [8]) was 0, the “Plant response rating, Rice (0 to 10 scale, 0 is no effect, 10 is complete control)” value (rice; [9]) was 0 and the “Rice plant response rating (0 to 10 scale, 0 is no effect, 10 is complete control)” value (rice; [10]) was 0. For the same compound, the “Rice plant response rating” value (rice; [11]) was 0, the “Rice plant response rating” value (rice; [12]) was 0 and the “Plant response rating, S. Flatsedge (0 to 10 scale, 0 is no effect, 10 is complete control)” value (smallflower flatsedge; [9]) was 0. For the same compound, the “S. Flatsedge plant response rating (0 to 10 scale, 0 is no effect, 10 is complete control)” value (smallflower flatsedge; [10]) was 0, the “S. Flatsedge plant response rating” value (smallflower flatsedge; [11]) was 0 and the “S. Flatsedge plant response rating” value (smallflower flatsedge; [12]) was 0. The “Plant response rating, Ducksalad (0 to 10 scale, 0 is no effect, 10 is complete control)” value (duck salad; [9]) was 0, the “Ducksalad plant response rating (0 to 10 scale, 0 is no effect, 10 is complete control)” value (duck salad; [10]) was 0 and the “Ducksalad plant response rating” value (duck salad; [11]) was 0. For the same compound, the “Ducksalad plant response rating” value (duck salad; [12]) was 0, the “Plant response rating, Barnyardgrass (0 to 10 scale, 0 is no effect, 10 is complete control)” value (bamyardgrass; [9]) was 0 and the “Barnyardgrass plant response rating (0 to 10 scale, 0 is no effect, 10 is complete control)” value (bamyardgrass; [10]) was 0. For the same compound, the “Barnyardgrass plant response rating” value (bamyardgrass; [11]) was 0 and the “Barnyardgrass plant response rating” value (bamyardgrass; [12]) was 0.
